In the supplement of paper PMC10307832 one finds relative viability data, which are given here for 7 cell lines.

What all share (assay): relative viability (nuclei count vs DMSO), 5 days (fraction); higher = more cells survive
Compound in the experiment “GSK-J4 + Foretinib”: CCOC(=O)CCNc1cc(N2CCc3ccccc3CC2)nc(-c2ccccn2)n1 [GSK-J4] + COc1cc2c(Oc3ccc(NC(=O)C4(C(=O)Nc5ccc(F)cc5)CC4)cc3F)ccnc2cc1OCCCN1CCOCC1 [Foretinib] (partner 0.25 µM)
In outline: (§1)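 After 5 days of treatment, lung cancer cells in 1536-well plates were fixed and stained in a single step (final 0.05% Triton X-100, 1% formaldehyde, 1 ug/ml Hoechst) and their nuclei counted on 4× images. Treatment had been applied by pin tool the day after seeding as one drug alone or as a fixed anchor-drug dose with five library-drug doses (not always all listed) in √10 steps. Relative viability is the nuclei count of treated wells divided by that of vehicle wells, and values are medians of duplicate plates.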

Compound in the experiment “GSK-J4 + Decitabine”: CCOC(=O)CCNc1cc(N2CCc3ccccc3CC2)nc(-c2ccccn2)n1 [GSK-J4] + Nc1ncn([C@H]2C[C@H](O)[C@@H](CO)O2)c(=O)n1 [Decitabine] (partner 2 µM)
The gist of the method: as §1

Compound in the experiment “AZ3146 + Navitoclax”: CN1CCC(CC1)OC2=CC(=C(C=C2)NC3=NC=C4C(=N3)N(C(=O)N4C)C5CCCC5)OC [AZ3146] + CC1(C)CCC(c2ccc(Cl)cc2)=C(CN2CCN(c3ccc(C(=O)NS(=O)(=O)c4ccc(N[C@H](CCN5CCOCC5)CSc5ccccc5)c(S(=O)(=O)C(F)(F)F)c4)cc3)CC2)C1 [Navitoclax] (partner 0.5 µM)
In outline: as §1

Compound in the experiment “AZ3146 + Decitabine”: CN1CCC(CC1)OC2=CC(=C(C=C2)NC3=NC=C4C(=N3)N(C(=O)N4C)C5CCCC5)OC [AZ3146] + Nc1ncn([C@H]2C[C@H](O)[C@@H](CO)O2)c(=O)n1 [Decitabine] (partner 2 µM)
The gist of the method:
as §1

For PC-3 [JPC-3], the relative viability with GSK-J4 + Foretinib (first compound 0.5 µM) is 0.96; with GSK-J4 + Foretinib (first compound 1.581 µM), 1.01; with GSK-J4 + Foretinib (first compound 5 µM), 1.01; with GSK-J4 + Foretinib (first compound 15.81 µM), 0.959; in the experiment with GSK-J4 + Foretinib (first compound 50 µM), 0.762; with GSK-J4 + Decitabine (first compound 0.5 µM) it was 0.883. Moreover, the relative viability with GSK-J4 + Decitabine (first compound 1.581 µM) amounted to 0.735; in the experiment with GSK-J4 + Decitabine (first compound 5 µM), 0.801; with GSK-J4 + Decitabine (first compound 15.81 µM), 0.876; with GSK-J4 + Decitabine (first compound 50 µM), 0.781; in the experiment with AZ3146 + Navitoclax (first compound 0.08 µM), 0.679; in the experiment with AZ3146 + Navitoclax (first compound 0.253 µM), 0.836. The relative viability with AZ3146 + Navitoclax (first compound 0.8 µM) is 0.802; in the experiment with AZ3146 + Navitoclax (first compound 2.53 µM), 0.797; with AZ3146 + Navitoclax (first compound 8 µM), 0.85; with AZ3146 + Decitabine (first compound 0.08 µM), 0.768; in the experiment with AZ3146 + Decitabine (first compound 0.8 µM), 0.806; in the experiment with AZ3146 + Decitabine (first compound 2.53 µM), 0.81. Also, the relative viability with AZ3146 + Decitabine (first compound 8 µM) came out at 0.85.

For PC-14, the relative viability came out at 0.902 in the experiment with GSK-J4 + Foretinib (first compound 0.5 µM); 0.832 with GSK-J4 + Foretinib (first compound 1.581 µM); 0.794 with GSK-J4 + Foretinib (first compound 5 µM); 0.926 in the experiment with GSK-J4 + Foretinib (first compound 15.81 µM); 0.963 with GSK-J4 + Foretinib (first compound 50 µM); 0.231 with GSK-J4 + Decitabine (first compound 0.5 µM). The relative viability worked out at 0.218 with GSK-J4 + Decitabine (first compound 1.581 µM); 0.259 with GSK-J4 + Decitabine (first compound 5 µM); 0.232 in the experiment with GSK-J4 + Decitabine (first compound 15.81 µM); 0.268 with GSK-J4 + Decitabine (first compound 50 µM); 0.959 in the experiment with AZ3146 + Navitoclax (first compound 0.08 µM); 1.02 with AZ3146 + Navitoclax (first compound 0.253 µM). The relative viability with AZ3146 + Navitoclax (first compound 0.8 µM) was determined as 1.12; with AZ3146 + Navitoclax (first compound 2.53 µM), 1.11; in the experiment with AZ3146 + Navitoclax (first compound 8 µM) it was 0.898; in the experiment with AZ3146 + Decitabine (first compound 0.08 µM) it was 0.208; with AZ3146 + Decitabine (first compound 0.253 µM), 0.2; in the experiment with AZ3146 + Decitabine (first compound 0.8 µM) it was 0.249. The figures for the relative viability with AZ3146 + Decitabine (first compound 2.53 µM) and with AZ3146 + Decitabine (first compound 8 µM) were 0.15 and 0.0833, respectively.

In the case of RERF-LC-KJ, the relative viability in the experiment with GSK-J4 + Foretinib (first compound 0.5 µM) worked out at 0.824; with GSK-J4 + Foretinib (first compound 1.581 µM) it was 0.796; with GSK-J4 + Foretinib (first compound 5 µM) it was 0.882; with GSK-J4 + Foretinib (first compound 15.81 µM) it was 0.803; with GSK-J4 + Foretinib (first compound 50 µM) it was 0.852; with GSK-J4 + Decitabine (first compound 0.5 µM) it was 0.624. Further, the relative viability in the experiment with GSK-J4 + Decitabine (first compound 1.581 µM) stood at 0.605; with GSK-J4 + Decitabine (first compound 5 µM) it was 0.602; with GSK-J4 + Decitabine (first compound 15.81 µM), 0.654; in the experiment with GSK-J4 + Decitabine (first compound 50 µM), 0.417; with AZ3146 + Navitoclax (first compound 0.08 µM), 0.872; in the experiment with AZ3146 + Navitoclax (first compound 0.253 µM), 0.878. In addition, the relative viability in the experiment with AZ3146 + Navitoclax (first compound 0.8 µM) came out at 1.04; in the experiment with AZ3146 + Navitoclax (first compound 2.53 µM), 0.787; with AZ3146 + Navitoclax (first compound 8 µM), 0.839; with AZ3146 + Decitabine (first compound 0.08 µM) it was 0.69; with AZ3146 + Decitabine (first compound 0.253 µM), 0.704; with AZ3146 + Decitabine (first compound 0.8 µM), 0.731. For the same cell line, the relative viability in the experiment with AZ3146 + Decitabine (first compound 2.53 µM) stood at 0.73; with AZ3146 + Decitabine (first compound 8 µM), 0.381.

For the cell line SK-LU-1, the relative viability in the experiment with GSK-J4 + Foretinib (first compound 0.5 µM) was determined as 0.727; in the experiment with GSK-J4 + Foretinib (first compound 1.581 µM), 0.722; with GSK-J4 + Foretinib (first compound 5 µM) it was 0.62; in the experiment with GSK-J4 + Foretinib (first compound 15.81 µM), 0.598; with GSK-J4 + Foretinib (first compound 50 µM), 0.603; in the experiment with GSK-J4 + Decitabine (first compound 0.5 µM), 0.653. In addition, the relative viability was found to be 0.605 with GSK-J4 + Decitabine (first compound 1.581 µM); 0.538 with GSK-J4 + Decitabine (first compound 5 µM); 0.633 in the experiment with GSK-J4 + Decitabine (first compound 15.81 µM); 0.524 with GSK-J4 + Decitabine (first compound 50 µM); 0.914 in the experiment with AZ3146 + Navitoclax (first compound 0.08 µM); 0.702 with AZ3146 + Navitoclax (first compound 0.253 µM). Besides, the relative viability was determined as 0.793 in the experiment with AZ3146 + Navitoclax (first compound 0.8 µM); 0.926 with AZ3146 + Navitoclax (first compound 2.53 µM); 0.576 with AZ3146 + Navitoclax (first compound 8 µM); 0.558 with AZ3146 + Decitabine (first compound 0.08 µM); 0.684 in the experiment with AZ3146 + Decitabine (first compound 0.253 µM); 0.552 with AZ3146 + Decitabine (first compound 0.8 µM). Moreover, the relative viability with AZ3146 + Decitabine (first compound 2.53 µM) came out at 0.647; in the experiment with AZ3146 + Decitabine (first compound 8 µM) it was 0.692.

Turning to SK-MES-1, the relative viability was 0.808 in the experiment with GSK-J4 + Foretinib (first compound 0.5 µM); 0.757 in the experiment with GSK-J4 + Foretinib (first compound 1.581 µM); 0.843 with GSK-J4 + Foretinib (first compound 5 µM); 0.624 with GSK-J4 + Foretinib (first compound 15.81 µM); 0.866 in the experiment with GSK-J4 + Foretinib (first compound 50 µM); 0.389 with GSK-J4 + Decitabine (first compound 0.5 µM). The relative viability in the experiment with GSK-J4 + Decitabine (first compound 1.581 µM) came out at 0.359; in the experiment with GSK-J4 + Decitabine (first compound 5 µM), 0.386; with GSK-J4 + Decitabine (first compound 15.81 µM) it was 0.321; with GSK-J4 + Decitabine (first compound 50 µM), 0.323; in the experiment with AZ3146 + Navitoclax (first compound 0.08 µM) it was 1.32; with AZ3146 + Navitoclax (first compound 0.253 µM), 1.22. Further, the relative viability turned out to be 1.3 with AZ3146 + Navitoclax (first compound 0.8 µM); 1.35 with AZ3146 + Navitoclax (first compound 2.53 µM); 1.35 in the experiment with AZ3146 + Navitoclax (first compound 8 µM); 0.364 with AZ3146 + Decitabine (first compound 0.08 µM); 0.397 in the experiment with AZ3146 + Decitabine (first compound 0.253 µM); 0.359 with AZ3146 + Decitabine (first compound 0.8 µM). For the same cell line, the relative viability is 0.477 with AZ3146 + Decitabine (first compound 2.53 µM) and 0.344 with AZ3146 + Decitabine (first compound 8 µM).

On to SW 1573, for which the relative viability was determined as 0.846 with GSK-J4 + Foretinib (first compound 0.5 µM); 0.69 with GSK-J4 + Foretinib (first compound 1.581 µM); 0.751 with GSK-J4 + Foretinib (first compound 5 µM); 0.776 with GSK-J4 + Foretinib (first compound 15.81 µM); 0.764 with GSK-J4 + Foretinib (first compound 50 µM); 0.592 in the experiment with GSK-J4 + Decitabine (first compound 0.5 µM). The relative viability with GSK-J4 + Decitabine (first compound 1.581 µM) turned out to be 0.645; in the experiment with GSK-J4 + Decitabine (first compound 5 µM) it was 0.436; with GSK-J4 + Decitabine (first compound 15.81 µM) it was 0.442; in the experiment with GSK-J4 + Decitabine (first compound 50 µM), 0.204; in the experiment with AZ3146 + Navitoclax (first compound 0.08 µM) it was 0.997; with AZ3146 + Navitoclax (first compound 0.253 µM) it was 1.1. Besides, the relative viability is 1.04 with AZ3146 + Navitoclax (first compound 0.8 µM); 0.93 with AZ3146 + Navitoclax (first compound 2.53 µM); 0.895 in the experiment with AZ3146 + Navitoclax (first compound 8 µM); 0.509 in the experiment with AZ3146 + Decitabine (first compound 0.08 µM); 0.605 with AZ3146 + Decitabine (first compound 0.253 µM); 0.542 with AZ3146 + Decitabine (first compound 0.8 µM). Also, the values for the relative viability in the experiment with AZ3146 + Decitabine (first compound 2.53 µM) and with AZ3146 + Decitabine (first compound 8 µM) were 0.397 and 0.162, respectively.

Turning to UMC-11, the relative viability came to 0.896 with GSK-J4 + Foretinib (first compound 0.5 µM); 1.07 with GSK-J4 + Foretinib (first compound 5 µM); 1.08 in the experiment with GSK-J4 + Foretinib (first compound 15.81 µM); 0.556 with GSK-J4 + Foretinib (first compound 50 µM); 0.93 in the experiment with GSK-J4 + Decitabine (first compound 0.5 µM); 0.642 with GSK-J4 + Decitabine (first compound 1.581 µM). In addition, the relative viability in the experiment with GSK-J4 + Decitabine (first compound 15.81 µM) amounted to 0.582; with GSK-J4 + Decitabine (first compound 50 µM) it was 0.343; with AZ3146 + Navitoclax (first compound 0.08 µM), 0.32; with AZ3146 + Navitoclax (first compound 0.253 µM), 0.27; in the experiment with AZ3146 + Navitoclax (first compound 0.8 µM), 0.302; in the experiment with AZ3146 + Navitoclax (first compound 2.53 µM), 0.312. Also, the relative viability in the experiment with AZ3146 + Navitoclax (first compound 8 µM) is 0.252; with AZ3146 + Decitabine (first compound 0.08 µM), 0.435; in the experiment with AZ3146 + Decitabine (first compound 0.253 µM), 0.558; in the experiment with AZ3146 + Decitabine (first compound 0.8 µM), 0.454; in the experiment with AZ3146 + Decitabine (first compound 2.53 µM), 0.579; with AZ3146 + Decitabine (first compound 8 µM) it was 0.385.
